Reference: patent US6696424B1, “Cytofectin dimers and methods of use thereof” (Vical Incorporated, priority 1999, dated 2004)

System: B16F10 melanoma tumors
Test: Subcutaneous melanoma tumor model, in vivo transfection with CAT reporter gene
Design: species or system BALB/C mice
Details: cytofectin/CAT plasmid complex injected into tumor, tumors collected after forty-eight hours; averages; FIG. 3
Experimental: A) General Subcutaneous Tumor Transfection Assay. Tumors are prepared by injecting a suspension of tumor cells subcutaneously on the side of a mouse strain compatible with the specific tumor type. The tumors are periodically measured. Once the tumors reach a size suitable for injection, the tumor volume is approximated based on the measured diameter assuming a spherical tumor. A complex of the cytofectin compound to be evaluated with a plasmid encoding a reporter gene (e.g., CAT) in a volume of saline equal to the volume of the tumor to be treated is then injected at a flow rate optimized for the particular tumor type. After an appropriate time, the tumors are collected, frozen and then ground up. The reporter gene product is subsequently extracted and the quantity expressed is determined using extraction and assay conditions appropriate for the particular gene product. A variety of tumor types may be evaluated using this general technique. […]
B) Subcutaneous Melanoma Tumor Model. […] When the tumors reached 4.5 mm to 7.0 mm in diameter, the volume of each individual tumor was calculated by measuring the diameter of the tumor and assuming a spherical tumor. For each individual tumor, a volume of the cytofectin/CAT plasmid complex in saline equivalent to the calculated volume of the tumor was injected into the tumor at a rate of 2 ml/min. […] CAT activity was quantitated as described below. […]

With `CCCCCCCCCCCCCCOCC(C[N+](C)(C)CCCNC(=O)NCCCCNC(=O)NCCC[N+](C)(C)CC(COCCCCCCCCCCCCCC)OCCCCCCCCCCCCCC)OCCCCCCCCCCCCCC` (centres unmarked) [SBGU-DMRIE] the “CAT activity (relative transgene expression vs pDNA transfection alone)” value was “greater activity than the naked DNA (pDNA) control”.
In the case of `CCCCCCCCCCCCCCOCC(C[N+](C)(C)CCCNC(=O)NCCCCCCNC(=O)NCCC[N+](C)(C)CC(COCCCCCCCCCCCCCC)OCCCCCCCCCCCCCC)OCCCCCCCCCCCCCC` (centres unmarked) [SHGU-DMRIE], the “CAT activity (relative transgene expression vs pDNA transfection alone)” value is reported as “greater activity than the naked DNA (pDNA) control”.
